Results as given in PMC3857224, “Inhibition of DNA Glycosylases via Small Molecule Purine Analogs” (PLoS ONE, 2013).

Assays:
NEIL1 [1] = target: T1, NEIL1 (Homo sapiens, UniProt Q96FI4); assay: qHTS fluorogenic glycosylase/AP lyase assay, 1536-well, Sp/Gh substrate; assay type: biochemical; details: 5 concentrations
T1 construct: made in house
Procedure: The fluorogenic assay was miniaturized to 4 µL in 1536-well black solid plates by optimization of the enzyme and Sp/Gh substrate concentrations. Briefly, 3 µL of 25 nM NEIL1 were dispensed into each well of a 1536-well plate (except buffer in columns 3 and 4 as a negative control). Compounds (DMSO solutions) and control (DMSO only) (23 nL) were transferred to the plate via Kalypsys pintool. The plate was incubated for 15 min at room temperature, and then 1 µL of the Sp/Gh-containing DNA substrate (75 nM final concentration) was added to start the reaction. The plate was immediately transferred into the ViewLux reader for the kinetic fluorescence read. Initial rate data were normalized against uninhibited and no-enzyme controls and the resulting percent activities as a function of compound concentration were fitted using the Hill equation.
Having established the general principle for a glycosylase screening assay, further assay development was undertaken to enable HTS in which the reaction volumes were reduced by 5-fold to a total of 4 µL. Initially, the library of pharmacologically active compounds (LOPAC^1280) was screened for inhibitors of NEIL1 as a determination of the feasibility of this high-throughput method. […] All compounds were screened at 5 different concentrations that allowed for the initial estimation of inhibitory potency (IC50) values, as well as an evaluation of the shape of the response curves. In addition to the anticipated inhibitors (known DNA intercalators, such as ellipticine (IC50 = 2 µM)) and other small molecules that have been previously established to be promiscuous inhibitors (such as aurintricarboxylic acid (IC50<1 µM)), one interesting hit from this screen was CGP-74514A (NCGC ID is NCGC00015229) (Figure 5A). CGP-74514A is a known small molecule inhibitor of Cdk1 in which the structure of this molecule is based on a purine ring backbone.

NEIL1 [2] = target: T1, NEIL1; assay: gel-based incision assay of oligodeoxynucleotides containing site-specific base lesions; assay type: biochemical; details: polyacrylamide gel, reaction quenched at 20 min
Procedure: The 384-well fluorogenic assay was carried out in a 20 µL reaction mixture in 20 mM Tris-HCl pH 8.0, 100 mM KCl, and 0.1% BSA, with 5 nM active enzyme and 50 nM substrate. Possible inhibitors were incubated with the enzyme for at least 5 min at room temperature in a black, low-volume 384-well plate before addition of an equal volume of substrate to start the reaction. The plates were spun for 30 s at 1000 rcf to remove bubbles. The reactions were incubated at 37°C and fluorescence data collected on an Infinite M200 (Tecan, Mannedorf, Switzerland) equipped with standard optics (excitation filter 525 nm, and emission filter 598 nm). For the gel-based assay, reactions were initiated as described for the fluorogenic assay, but quenched with 20 µL 95% formamide at 20 min. The products were separated by electrophoresis through a 15% polyacrylamide gel containing 8 M urea and visualized by a Typhoon scanner (GE Life Sciences, Piscataway, NJ). The fraction of cleaved product was measured using ImageQuant software and analyzed using GraphPad Prism 6. […]

NEIL1-depleted cells = test system: NEIL1-depleted cells; set-up: method as in PMID 21131780; details: minimally toxic doses, siRNA NEIL1 depletion; cited from earlier work
NEIL1 [3] = target: T1, NEIL1; assay: NEIL1 excision of FapyAde and FapyGua from γ-irradiated calf thymus DNA by GC-MS/MS; assay type: biochemical; details: 10 µL of 2 mM inhibitor in DMSO, 1 h 37°C
Procedure: The enzymatic activity of NEIL1 was measured using gas chromatography/isotope-dilution tandem mass spectrometry (GC-MS/MS) and calf thymus DNA samples γ-irradiated at 20 Gy as described, [30]. Aliquots of FapyAde-^13C,^15N2 and FapyGua-^13C,^15N2 were added as internal standards to 50 µg of DNA samples. After drying in a SpeedVac, DNA samples were dissolved in 50 µL of an incubation buffer consisting of 50 mM phosphate buffer (pH 7.4), 100 mM KCl, 1 mM EDTA, and 0.1 mM dithiothreitol, and then incubated with 2 µg NEIL1 for 1 h at 37°C without any inhibitor, DMSO alone, or with 10 µL of an inhibitor solution in DMSO (2 mM). After incubation, 150 µL of cold ethanol was added. The samples were kept at −20°C for 1 h and then centrifuged with 14,000 g for 30 min at 4°C. The supernatant fractions were separated and ethanol removed in a SpeedVac under vacuum. The samples were then frozen in liquid nitrogen and lyophilized overnight. To fully remove DMSO that would interfere with GC-MS/MS analysis, 500 µL water were added to the samples followed by lyophilization overnight. This procedure was repeated twice. Dried samples were derivatized and analyzed by GC-MS/MS as described, [30]. For each data point, three independently prepared samples were used.
Although Gh and Sp are excellent substrates for NEIL1, these are likely not to be the biologically relevant substrates. Thus, to determine if the compounds that were identified above were effective in the inhibition of NEIL1 against its biologically relevant substrates FapyAde and FapyGua, [6], γ-irradiated calf thymus DNA was used as a substrate. The excision by NEIL1 of these substrates from DNA was measured by GC-MS/MS with isotope-dilution. Figure 8 illustrates the excision of FapyAde and FapyGua by NEIL1 from γ-irradiated calf thymus DNA in the absence or presence of inhibitors. […] Some inhibition by DMSO alone was also observed when compared with excision by NEIL1 alone (p = 0.01). However, when compared to DMSO, the inhibitions by P2, P6, P7 and P8 were highly significant (p<0.005). […] A p-value<0.05 was assumed to correspond to statistical significance.

T1 sequence (Q96FI4 whole entry): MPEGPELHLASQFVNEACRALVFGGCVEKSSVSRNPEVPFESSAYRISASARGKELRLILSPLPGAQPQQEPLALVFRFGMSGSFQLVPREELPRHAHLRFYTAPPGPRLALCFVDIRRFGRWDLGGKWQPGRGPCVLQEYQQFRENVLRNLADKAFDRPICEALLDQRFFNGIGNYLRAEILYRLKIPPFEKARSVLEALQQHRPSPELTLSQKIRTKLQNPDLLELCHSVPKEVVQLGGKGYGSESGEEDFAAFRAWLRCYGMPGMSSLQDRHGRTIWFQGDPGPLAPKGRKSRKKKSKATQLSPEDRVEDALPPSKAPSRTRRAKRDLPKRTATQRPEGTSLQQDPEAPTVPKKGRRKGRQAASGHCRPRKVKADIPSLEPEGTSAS

Compound | IC50 (NEIL1 [1]) [µM] | IC50 (NEIL1 [2]) [µM] | increased cytotoxicity in NEIL1-depleted cells (NEIL1-depleted cells) [fold] | inhibition of NEIL1 excision of FapyAde and FapyGua (NEIL1 [3])
CC(C)[C@H](CO)N(Cc1cccc(F)c1)c1nc(Nc2cccc(Cl)c2)c2ncn(C(C)C)c2n1 [Purine P32] | 7.1 | 19.3 | – | –
CC(=O)OC[C@@H]1CN(Cc2ccccc2)C[C@H](n2cnc3c(NCc4ccc(F)cc4)ncnc32)O1 [Purine P29] | 0.9 | > 50 | – | –
CCc1cccc(NC(=O)C2CCCN(c3ncnc4c3nc3n4CCCCC3)C2)c1 (stereo not shown) [Purine P28] | 0.7 | > 20 | – | –
Cc1cccc(OCCSc2nc3c([nH]2)c(=N)ncn3Cc2ccccc2)c1 [Purine P39] | 0.6 | > 50 | – | –
Nc1nc(N)c2nc(CNc3ccc(C(=O)N[C@@H](CCC(=O)O)C(=O)O)cc3)cnc2n1 [AMT, aminopterin] | – | – | 7 | –
COc1ccc2[nH]cc(CCNC(=O)/C=C/[C@H]3O[C@@H](n4cnc5c(NC(=O)c6ccccc6)ncnc54)[C@H](O)[C@@H]3O)c2c1 [Purine P35] | 11.2 | > 50 | – | –
CC(C)n1cnc2c(NCc3ccccc3)nc(NCc3ccccc3)nc21 [Purine P33] | 7.9 | > 50 | – | –
CC(C)n1cnc2c(N(C)c3ccccc3)nc(N(CCN(C)C)Cc3ccccc3)nc21 [Purine P13] | 12.6 | > 50 | – | –
Cc1ccccc1CN1CCC(CNC(=O)C2CCCN(c3ncnc4c3nc3n4CCCCC3)C2)CC1 (stereo not shown) [Purine P31] | 7.1 | > 50 | – | –
O=C(O)C1=CC(=C(c2ccc(O)c(C(=O)O)c2)c2ccc(O)c(C(=O)O)c2)C=CC1=O [aurintricarboxylic acid, reference compound] | < 1 | – | – | –
N#Cc1nc(Nc2cc(F)cc(F)c2)c2ncn(CCCN3CCCC3)c2n1 [Purine P5] | 7.9 | > 50 | – | –
O=C(OCC1OC(n2cnc3c(N(C(=O)c4ccccc4)C(=O)c4ccccc4)ncnc32)C(O)C1F)c1ccccc1 (stereo not shown) [Purine P3] | 3.2 | > 50 | – | –
CCNc1nc(C#N)nc2c1ncn2-c1cccc(Cl)c1 [Purine P10] | 10 | > 50 | – | –
CN(Cc1cnc2nc(N)nc(N)c2n1)c1ccc(C(=O)N[C@@H](CCC(=O)O)C(=O)O)cc1 [MTX, methotrexate] | – | – | 10 | –
Cc1nc2ccc(CN(C)c3ccc(C(=O)N[C@@H](CCC(=O)O)C(=O)O)s3)cc2c(=O)[nH]1 [RTX, raltitrexed] | – | – | 9 | –
CN(C)CCNc1ncnc2c1ncn2[C@H]1CN(Cc2ccc(-c3ccccc3)cc2)C[C@@H](CO)O1 [Purine P16] | 15.8 | > 50 | – | –
CNC(=O)[C@H]1O[C@H](n2cnc3c(NCc4cccc(I)c4)ncnc32)[C@@H](O)[C@@H]1O [Purine P30] | 1.8 | > 50 | – | –
C=CC(=O)N1CCCC(Nc2nc(Nc3ccc(N(C)C(=O)CC)cc3C)nc3nc[nH]c23)C1 (stereo not shown) [Purine P12] | 11.2 | > 20 | – | –
c1ccc(COc2ccc(Nc3ncnc4nc[nH]c34)cc2)cc1 [Purine P26] | 31.6 | > 20 | – | –

Compound | IC50 (NEIL1 [1]) [µM] | IC50 (NEIL1 [2]) [µM] | increased cytotoxicity in NEIL1-depleted cells (NEIL1-depleted cells) [fold] | inhibition of NEIL1 excision of FapyAde and FapyGua (NEIL1 [3])
O=C(C1CCN(c2ncnc3c2nc2n3CCCCC2)CC1)N1CCN(c2cccc(Cl)c2)CC1 [Purine P19] | 20 | > 20 | – | no inhibition
Cc1ccc(NC(=O)C2CCCN(c3ncnc4c3nc3n4CCCCC3)C2)cc1Cl (stereo not shown) [Purine P22] | 25.1 | > 50 | – | –
COc1ccccc1CNC(=O)C1CCN(c2ncnc3c2nc2n3CCCCC2)CC1 [Purine P37] | 10 | > 50 | – | –
Cc1cc(/C=C/C#N)cc(C)c1Nc1nc(Nc2ccc3n[nH]nc3c2)c2[nH]cnc2n1 [Purine P18] | 17.8 | > 50 | – | –
COc1cccc(-c2cc(CNC(=O)[C@H]3O[C@@H](n4cnc5c(N)ncnc54)[C@H](O)[C@@H]3O)no2)c1 [Purine P34] | 10 | > 50 | – | –
N#Cc1nc(Nc2cc(F)cc(F)c2)c2ncn(CCN3CCCC3)c2n1 [Purine P1] | 3.6 | > 50 | – | –
O=C(C1CCCN(c2ncnc3c2nc2n3CCCCC2)C1)N1CCN(c2cccc(Cl)c2)CC1 (stereo not shown) [Purine P17] | 15.8 | > 50 | – | –
Nc1ncnc2c1ncn2[C@@H]1O[C@H](CNCc2cccc(C#Cc3ccccc3)c2)[C@@H](O)[C@H]1O [Purine P14] | 12.6 | > 50 | – | –
O=C(C1CCCN(c2ncnc3c2nc2n3CCCCC2)C1)N1CCN(c2ccc(F)cc2)CC1 (stereo not shown) [Purine P41] | 0.8 | > 50 | – | –
CC(C)CNc1ncnc2c1ncn2[C@H]1CN(Cc2ccc(-c3ccccc3)cc2)C[C@@H](CO)O1 [Purine P15] | 14.1 | > 50 | – | –
CCOCCCNc1ncnc2c1nc1n2CCCC1 [Purine P42] | 0.8 | > 50 | – | –
Cc1cc(C)c(CN2CCN(C(=O)Cn3cnc4c(NCc5ccccc5)ncnc43)CC2)c(C)c1 [Purine P25] | 31.6 | > 20 | – | –
CC(=O)c1ccc(N2CCN(C(=O)C3CCCN(c4ncnc5c4nc4n5CCCCC4)C3)CC2)cc1 (stereo not shown) [Purine P27] | 0.6 | > 50 | – | –
COc1ccc(CNc2nc(NCc3ccc(OC)cc3)c3[nH]cnc3n2)cc1 [Purine P40] | 0.6 | > 50 | – | –
OC[C@@H]1CN(Cc2ccccc2)C[C@H](n2cnc3c(N4CCN(c5ccccc5)CC4)ncnc32)O1 [Purine P38] | 0.3 | > 50 | – | –
Cc1ccc2nc(N)[nH]c(=O)c2c1Sc1ccncc1 [NOL, nolatrexed] | – | – | 5 | –
Nc1nc(N)c2[nH]c(-c3ccccc3)nc2n1 [Purine P36] | 15.5 | > 50 | – | –
Cc1ccc(C(=O)Nc2cccc(C(F)(F)F)c2)cc1Nc1ncnc2nc[nH]c12 [Purine P20] | 22.4 | > 50 | – | –
